Results as given in patent US20100003217A1, “Compounds and Pharmaceutical Compositions for the Treatment of Viral Infections” (priority 2008, published 2010).
Values joined by “and” are separate entries in the source; they are usually repeats but may differ in a detail not shown here. Identical values can stand only once. Each block holds one compound with its values, some of them ahead of it.

Assays:
Type in all cases: in vitro ADME
[1] = Metabolite profiling in monkey liver microsomes; design: key: +: peak detected; ?: peak observed; ND: not detected; conditions: 50 μM Compound 1, 2 hours
Method: (§1) Preliminary identification of putative metabolites was conducted by comparing the retention time of observed metabolites with retention times obtained with chemically synthesized standards using the following HPLC-UV method:
(§2) Incubations with liver microsomes, liver cytosol or pig liver esterase were conducted in a final volume of 0.1 mL per incubation time point. Pooled microsomal protein (1.0 mg/mL) suspended in incubation buffer (0.1 M potassium phosphate, pH 7.4) was incubated for 2 hours at 37° C. with 50 μM Compound 1 from a stock solution in DMSO (final DMSO concentration was 0.1%); the microsomal reaction was initiated by the addition of an NADPH regenerating system (1.3 mM NADP^+, 3.3 mM glucose-6-phosphate, 0.4 U/ml glucose-6-phosphate dehydrogenase, and 3.3 mM MgCl2, final concentrations). Incubations with no NADPH or no protein served as controls. Reactions were terminated by the addition of 0.1 mL of stop solution (acetonitrile). The samples were vortex-mixed for 30 sec and then centrifuged at 10,000×g for 10 min. The supernatant was dried using a Labconco CentriVap concentrator and the dry residue reconstituted in water, transferred to an HPLC glass vial and analyzed by HPLC-UV method 2 (described above).
(§3) Results: Preliminary identification was accomplished by comparing LC elution of metabolites with that of available synthetic standards of putative metabolites (FIG. 2). Metabolites U1, U2 and U3 were characterized based on the retention times.

[2] = Metabolite profiling in human liver microsomes; design: key: +: peak detected; ?: peak observed; ND: not detected; conditions: 50 μM Compound 1, 2 hours
Method: as §1, §2, §3

[3] = tested on: human primary hepatocytes; assay: Metabolic disposition of [^14C]-Compound 1 and [^14C]-2′-C-methyl guanosine in human primary hepatocytes (incubation medium, cellular extracts, nucleotide levels); conditions: for Major metabolites observed in cellular extracts (% of total radioactivity): human hepatocytes Hu775, 1 μM [^14C]-2′-C-methyl guanosine
Method: Primary hepatocytes: Freshly isolated cells from animal and human liver were obtained in suspension on ice. Cells were pelleted by centrifugation at 70-75×g (rat) or 95-90×g (monkey and human) and resuspended at 0.8 million cells per mL of platting medium (William's E supplemented with 5% FBS, 0.5% penicillin-streptomycin, 1% L-glutamine, 4 μg/mL insulin and 1 μM dexamethasone). Multi-well collagen I-coated plates (rat tail collagen type I; 12- or 6-well) were then seeded by addition of 1 mL (12-well; 0.8 million cells/well) or 2 mL (6-well; 1.6 million cells/well) of cell suspension. The plates were gently shaken to evenly distribute the cells and placed in an incubator at 37° C. for approximately 4 to 6 hours to allow cells to attach. Once cells were attached, the platting medium was removed and replaced with hepatocyte culture medium (William's E supplemented with penicillin-streptomycin, 1% L-glutamine, 1% insulin-transferrin-selenium and 0.1 μM dexamethasone). Cells were left overnight in an incubator at 37° C. to acclimatize to culture and the medium.
Hepatocyte incubations with radiolabeled Compound 1 and 2′-C-methyl guanosine, both labeled in the C-8 position of the guanine moiety, were conducted at a final volume of 2.0 mL hepatocyte culture medium/well ([…]). Culture medium from overnight incubation of cells was removed and replaced with fresh medium, pre-warmed to 37° C., containing 1 or 10 μM [^14C]-Compound 1 ([…]) or [^14C]-2′-C-methyl guanosine (127 DPM/μmol) from a stock solution in DMSO (final DMSO concentration was 0.1%) or 50% ethanol (final ethanol concentration was 0.2%). After 1, 4, 8 and 24 hours, 0.5-1.0 mL of incubation medium was removed and stored at −20° C. until analysis (described below). The remaining medium was discarded and cell monolayers were carefully washed two times with ice-cold PBS. Following the last wash, all PBS was carefully removed and 1.0 mL of extraction solution (ice-cold 70% methanol) added. Cells were scrapped off and suspended in the extraction solution, transferred to 2 mL polypropylene microfuge tubes and intracellular contents extracted overnight at −20° C.
Preliminary identification of putative metabolites was conducted by comparing the retention time of observed metabolites in incubation medium and cellular extracts with retention times obtained with chemically synthesized standards using the chromatography conditions described below. Further identification of 2′-C-methyl guanosine nucleotides (mono-, di- and triphosphate) was carried out by incubating cellular extract samples with alkaline phosphatase (10 units for 60 min at 37° C.) and comparing the HPLC retention times of the resulting nucleosides with that of authentic 2′-C-methyl guanosine.
Cellular extracts were prepared by centrifugation at 16,000 RCF using an Eppendorf microcentrifuge (Eppendorf, Model 5415D) for 10 min to remove cellular debris. An aliquot of 5-10 μL of the supernatant was added to 5 mL of EcoLite™ (MP, Irvine, Calif.) liquid scintillation cocktail and radioactivity measured by liquid scintillation counting (LSC) using a Beckman Coulter LS6500 multipurpose liquid scintillation counter (Beckman Instruments, Fullerton, Calif.). The remaining sample was then dried using a Labconco refrigerated centrivap concentrator (Labconco, Kansas City, Mo.). Dry extracts were reconstituted in 120 μL of HPLC-grade water and centrifuged at 16,000 RCF using an Eppendorf microcentrifuge for 10 min. Prior to HPLC analysis (described below), radioactivity of the concentrated extracts was measured by LSC using 5 μL aliquots. Extraction recovery was then determined by comparing total radioactivity in extracts before and after drying. The remaining extract was then analyzed by HPLC with online radioactivity detection using a Flow Scintillation Analyzer Radiomatic™ 515TR. Radioactivity in the separated components was quantified by integrating the peaks using Flo-One™ Software (Perkin Elmer Life Sciences). […]

[4] = human hepatocytes (Hu759, Hu775), 10 μM [^14C]-Compound 1, 1 h
[5] = human hepatocytes (Hu759, Hu775), 10 μM [^14C]-Compound 1, 4 h
[6] = human hepatocytes (Hu759, Hu775), 10 μM [^14C]-Compound 1, 24 h
[7] = human hepatocytes (Hu775), 1 μM [^14C]-Compound 1, 1 h
[8] = human hepatocytes (Hu775), 1 μM [^14C]-Compound 1, 8 h
[9] = human hepatocytes (Hu775), 1 μM [^14C]-Compound 1, 24 h

SMILES: CC(C)(CO)C(=O)SCCOP(=O)(NCc1ccccc1)OC[C@H]1O[C@@H](n2cnc3c(=O)[nH]c(N)nc32)[C@](C)(O)[C@@H]1O (mixture of isomers) [Compound 1, 3-hydroxy-2,2-dimethyl-thiopropionic acid S-(2-{[(2R,3R,4R,5R)-5-(2-amino-6-oxo-1,6-dihydro-purin-9-yl)-3,4-dihydroxy-4-methyl-tetrahydro-furan-2-ylmethoxy]-benzylamino-phosphoryloxy}-ethyl) ester]
In vitro metabolite profile in microsomes following incubation with Compound 1 (peak detection) [1]: +
In vitro metabolite profile in microsomes following incubation with Compound 1 (peak detection) [2]: +
metabolites observed in cellular extracts (% of total radioactivity) [3, 4]: 31.1% and 23.9%
metabolites observed in cellular extracts (% of total radioactivity) [3, 5]: 8.48% and 6.96%
metabolites observed in cellular extracts (% of total radioactivity) [3, 6]: 1.38% and 1.59%
metabolites observed in cellular extracts (% of total radioactivity) [3, 7]: 19.9%
metabolites observed in cellular extracts (% of total radioactivity) [3, 8]: 4.07%
metabolites observed in cellular extracts (% of total radioactivity) [3, 9]: 2.78%
decrease in Compound 1 medium levels ([3]; human hepatocytes, 10 μM, 24 hours): 38%
% Residual [^14C]-Compound 1 in incubation medium ([3]; human primary hepatocytes (n=1), 1 μM, 0 h): 97%
% Residual [^14C]-Compound 1 in incubation medium ([3]; human primary hepatocytes (n=1), 1 μM, 1 h): 100%
% Residual [^14C]-Compound 1 in incubation medium ([3]; human primary hepatocytes (n=1), 1 μM, 8 h): 78%
% Residual [^14C]-Compound 1 in incubation medium ([3]; human primary hepatocytes (n=1), 1 μM, 24 h): 51%
% Residual [^14C]-Compound 1 in incubation medium ([3]; human primary hepatocytes (n=2), 10 μM, 0 h): 97% and 98%
% Residual [^14C]-Compound 1 in incubation medium ([3]; human primary hepatocytes (n=2), 10 μM, 1 h): 94% and 97%
% Residual [^14C]-Compound 1 in incubation medium ([3]; human primary hepatocytes (n=2), 10 μM, 4 h): 91%
% Residual [^14C]-Compound 1 in incubation medium ([3]; human primary hepatocytes (n=2), 10 μM, 8 h): 84% and 79%
% Residual [^14C]-Compound 1 in incubation medium ([3]; human primary hepatocytes (n=2), 10 μM, 24 h): 63% and 60%

In vitro metabolite profile in microsomes following incubation with Compound 1 (peak detection) [1]: +
In vitro metabolite profile in microsomes following incubation with Compound 1 (peak detection) [2]: +
metabolites observed in cellular extracts (% of total radioactivity) ([3]; human hepatocytes (Hu759, Hu775), 10 μM [^14C]-2′-C-methyl guanosine, 1 h): 97.1% and 94.9%
metabolites observed in cellular extracts (% of total radioactivity) ([3]; human hepatocytes (Hu759, Hu775), 10 μM [^14C]-2′-C-methyl guanosine, 4 h): 87.3% and 77.3%
metabolites observed in cellular extracts (% of total radioactivity) ([3]; human hepatocytes (Hu759, Hu775), 10 μM [^14C]-2′-C-methyl guanosine, 8 h): 73.9% and 61.4%
metabolites observed in cellular extracts (% of total radioactivity) ([3]; human hepatocytes (Hu759, Hu775), 10 μM [^14C]-2′-C-methyl guanosine, 24 h): 52.4% and 40.2%
metabolites observed in cellular extracts (% of total radioactivity) [3, 4]: 3.69% and 3.75%
metabolites observed in cellular extracts (% of total radioactivity) [3, 5]: 4.20% and 3.10%
metabolites observed in cellular extracts (% of total radioactivity) ([3]; human hepatocytes (Hu759, Hu775), 10 μM [^14C]-Compound 1, 8 h): 7.52% and 5.89%
metabolites observed in cellular extracts (% of total radioactivity) [3, 6]: 10.3% and 9.06%
metabolites observed in medium (% of total radioactivity) ([3]; human hepatocytes (Hu775), 1 μM [^14C]-Compound 1, 0 h): BLD^a
metabolites observed in cellular extracts (% of total radioactivity) [3, 7]: BLD^a
metabolites observed in medium (% of total radioactivity) [3, 7]: BLD
metabolites observed in cellular extracts (% of total radioactivity) [3, 8]: 4.34%
metabolites observed in medium (% of total radioactivity) [3, 8]: 9.20% and 9.22%
metabolites observed in cellular extracts (% of total radioactivity) [3, 9]: 9.05%
metabolites observed in medium (% of total radioactivity) [3, 9]: 39% and 38.7%
metabolites observed in medium (% of total radioactivity) ([3]; human hepatocytes (lots Hu759, Hu775), 10 μM [^14C]-Compound 1, 0 h): BLD^b and BLD
metabolites observed in medium (% of total radioactivity) ([3]; human hepatocytes (lots Hu759, Hu775), 10 μM [^14C]-Compound 1, 1 h): BLD and BLD^a
metabolites observed in medium (% of total radioactivity) ([3]; human hepatocytes (lots Hu759, Hu775), 10 μM [^14C]-Compound 1, 4 h): 1.7% and 1.6%
metabolites observed in medium (% of total radioactivity) ([3]; human hepatocytes (lots Hu759, Hu775), 10 μM [^14C]-Compound 1, 8 h): 4.6% and 7%
metabolites observed in medium (% of total radioactivity) ([3]; human hepatocytes (lots Hu759, Hu775), 10 μM [^14C]-Compound 1, 24 h): 22.1% and 29%
Major metabolites observed in cellular extracts (% of total radioactivity) ([3]; 1 h): 94.6 % of total radioactivity
Major metabolites observed in cellular extracts (% of total radioactivity) ([3]; 8 h): 65.8 % of total radioactivity
Major metabolites observed in cellular extracts (% of total radioactivity) ([3]; 24 h): 41.3 % of total radioactivity
SMILES: C[C@@]1(O)[C@H](O)[C@@H](CO)O[C@H]1n1cnc2c(=O)[nH]c(N)nc21 [2′-C-methyl guanosine, 9-(2-C-methyl-β-D-ribofuranosyl)guanine, reference compound]
